Values of other authors as cited in paper PMC4232468 (Nature chemical biology, 2014).

Cc1ccc2c(=O)c3cccc(CC(=O)O)c3oc2c1C [DMXAA, 5,6-dimethylxanthenone-4-acetic acid]
activation of mouse STING (mouse STING (mSTING)): activates mouse STING (mSTING)
activation of human STING (human STING (hSTING)): not human STING (hSTING)
